In the NIST ThermoML archive (doi:10.1016/j.jct.2015.03.001):

Assays:
[1] = relative permittivity at various frequencies (dimensionless); xn = mol fraction of the nth substance listed; settings: 99 kPa, Liquid, Frequency=2 MHz, Parallel plate capacitor
[2] = refractive index (Na D-line) (dimensionless); xn = mol fraction of the nth substance listed; settings: 99 kPa, Liquid, Abbe refractometer

CCCCCl [1-chlorobutane] + CCCCCCC
Settings	refractive index, 283.15 K	refractive index, 298.15 K	refractive index, 313.15 K	relative permittivity, 283.15 K	relative permittivity, 298.15 K	relative permittivity, 313.15 K
[1], x2 = 0	–	–	–	7.552	7.157	6.757
[1], x2 = 0.0484	–	–	–	7.201	6.84	6.47
[1], x2 = 0.101	–	–	–	6.808	6.475	6.132
[1], x2 = 0.1965	–	–	–	6.051	5.77	5.492
[1], x2 = 0.2708	–	–	–	5.486	5.243	5.005
[1], x2 = 0.4005	–	–	–	4.601	4.417	4.237
[1], x2 = 0.5038	–	–	–	3.999	3.855	3.715
[1], x2 = 0.5995	–	–	–	3.52	3.404	3.299
[1], x2 = 0.6978	–	–	–	3.089	3.001	2.921
[1], x2 = 0.805	–	–	–	2.665	2.608	2.545
[1], x2 = 0.897	–	–	–	2.327	2.287	2.247
[1], x2 = 0.9475	–	–	–	2.138	2.112	2.079
[2], x2 = 0	1.4075	1.3995	1.39131	–	–	–
[2], x2 = 0.0503	1.40636	1.39837	1.39019	–	–	–
[2], x2 = 0.1023	1.40522	1.39724	1.38907	–	–	–
[2], x2 = 0.201	1.40318	1.39522	1.38708	–	–	–
[2], x2 = 0.3012	1.40132	1.39338	1.38527	–	–	–
[2], x2 = 0.4003	1.39966	1.39175	1.38367	–	–	–
[2], x2 = 0.4985	1.3982	1.39033	1.38227	–	–	–
[2], x2 = 0.5963	1.39694	1.38909	1.38108	–	–	–
[2], x2 = 0.7037	1.39573	1.38793	1.37996	–	–	–
[2], x2 = 0.82	1.39458	1.38682	1.3789	–	–	–
[2], x2 = 0.9094	1.39373	1.386	1.37811	–	–	–
[2], x2 = 0.949	1.39337	1.38565	1.37778	–	–	–

CC(C)CCl [1-chloro-2-methylpropane] + CCCCCCC
Settings	refractive index, 283.15 K	refractive index, 298.15 K	refractive index, 313.15 K	relative permittivity, 283.15 K	relative permittivity, 298.15 K	relative permittivity, 313.15 K
[1], x2 = 0	–	–	–	7.472	7.074	6.657
[1], x2 = 0.0467	–	–	–	7.151	6.783	6.395
[1], x2 = 0.1011	–	–	–	6.755	6.418	6.062
[1], x2 = 0.197	–	–	–	6.042	5.749	5.45
[1], x2 = 0.297	–	–	–	5.32	5.08	4.828
[1], x2 = 0.4028	–	–	–	4.619	4.43	4.232
[1], x2 = 0.5045	–	–	–	4.028	3.88	3.725
[1], x2 = 0.6012	–	–	–	3.537	3.425	3.3
[1], x2 = 0.7002	–	–	–	3.094	3.012	2.918
[1], x2 = 0.801	–	–	–	2.697	2.636	2.568
[1], x2 = 0.9058	–	–	–	2.303	2.262	2.219
[1], x2 = 0.9473	–	–	–	2.147	2.114	2.081
[2], x2 = 0	1.40354	1.39529	1.38683	–	–	–
[2], x2 = 0.0485	1.40248	1.39425	1.38582	–	–	–
[2], x2 = 0.1009	1.40145	1.39325	1.38485	–	–	–
[2], x2 = 0.2046	1.39974	1.39161	1.38327	–	–	–
[2], x2 = 0.3065	1.3983	1.39022	1.38196	–	–	–
[2], x2 = 0.4028	1.39716	1.38914	1.38093	–	–	–
[2], x2 = 0.5039	1.3961	1.38814	1.37999	–	–	–
[2], x2 = 0.603	1.3952	1.38729	1.3792	–	–	–
[2], x2 = 0.7033	1.39445	1.3866	1.37858	–	–	–
[2], x2 = 0.8026	1.39381	1.38601	1.37804	–	–	–
[2], x2 = 0.9158	1.39326	1.38548	1.37758	–	–	–
[2], x2 = 0.9513	1.3931	1.38538	1.37749	–	–	–

CC(C)CCl [1-chloro-2-methylpropane] + CCCCCC
Settings	refractive index, 283.15 K	refractive index, 298.15 K	refractive index, 313.15 K	relative permittivity, 283.15 K	relative permittivity, 298.15 K	relative permittivity, 313.15 K
[1], x2 = 0	–	–	–	7.472	7.074	6.657
[1], x2 = 0.0482	–	–	–	7.14	6.773	6.385
[1], x2 = 0.1006	–	–	–	6.784	6.442	6.082
[1], x2 = 0.1985	–	–	–	6.106	5.816	5.506
[1], x2 = 0.2966	–	–	–	5.432	5.191	4.929
[1], x2 = 0.3985	–	–	–	4.768	4.573	4.358
[1], x2 = 0.5036	–	–	–	4.142	3.991	3.82
[1], x2 = 0.5998	–	–	–	3.626	3.513	3.38
[1], x2 = 0.6993	–	–	–	3.149	3.064	2.966
[1], x2 = 0.8028	–	–	–	2.707	2.648	2.579
[1], x2 = 0.9002	–	–	–	2.315	2.278	2.232
[1], x2 = 0.9462	–	–	–	2.129	2.102	2.068
[2], x2 = 0	1.40354	1.39529	1.38683	–	–	–
[2], x2 = 0.0484	1.40197	1.39371	1.38526	–	–	–
[2], x2 = 0.0984	1.40039	1.39212	1.38366	–	–	–
[2], x2 = 0.2052	1.39725	1.38895	1.38049	–	–	–
[2], x2 = 0.3044	1.39452	1.3862	1.37775	–	–	–
[2], x2 = 0.4034	1.39199	1.38367	1.37523	–	–	–
[2], x2 = 0.5052	1.38961	1.3813	1.37287	–	–	–
[2], x2 = 0.6134	1.38726	1.37897	1.37057	–	–	–
[2], x2 = 0.7019	1.38551	1.37722	1.36883	–	–	–
[2], x2 = 0.8082	1.38355	1.37526	1.3669	–	–	–
[2], x2 = 0.908	1.38189	1.3736	1.36525	–	–	–
[2], x2 = 0.9475	1.38129	1.37301	1.36468	–	–	–
